# Assay results published in US9988373B2, “Nitrogen-containing six-membered cyclic derivatives and pharmaceutical composition comprising the same” (SHIONOGI & CO., LTD., priority 2013, dated 2018).
# Target: T1, human P2X7 receptor (Homo sapiens, UniProt Q99572, R270H)
# T1 construct: expressed in transfected cells
# T1 sequence (Q99572 1-595 R270H): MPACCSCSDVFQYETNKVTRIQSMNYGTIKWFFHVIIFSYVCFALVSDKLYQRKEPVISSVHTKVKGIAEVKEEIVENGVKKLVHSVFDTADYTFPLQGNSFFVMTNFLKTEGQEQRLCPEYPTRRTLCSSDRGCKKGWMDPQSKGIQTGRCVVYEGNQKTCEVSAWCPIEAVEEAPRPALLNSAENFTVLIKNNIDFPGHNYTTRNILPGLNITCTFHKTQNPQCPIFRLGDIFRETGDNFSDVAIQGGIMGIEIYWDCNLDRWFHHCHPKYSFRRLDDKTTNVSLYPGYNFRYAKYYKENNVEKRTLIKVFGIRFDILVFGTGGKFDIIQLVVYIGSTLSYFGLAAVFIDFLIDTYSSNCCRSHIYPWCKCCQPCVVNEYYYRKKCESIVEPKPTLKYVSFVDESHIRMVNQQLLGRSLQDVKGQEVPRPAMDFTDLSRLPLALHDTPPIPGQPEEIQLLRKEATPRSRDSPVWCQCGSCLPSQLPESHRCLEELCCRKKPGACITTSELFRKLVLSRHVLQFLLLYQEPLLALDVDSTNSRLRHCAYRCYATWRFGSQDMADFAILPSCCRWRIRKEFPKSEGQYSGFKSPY
# Assay: Evaluation of a human P2X7 receptor inhibitory activity (Yo-Pro uptake, BzATP stimulation, FLIPR TETRA)
# Format: cell-based
# Details: antagonistic activity for the human P2X7 receptor, 1321N1 cell transfected with the human P2X7 receptor gene, Yo-Pro fluorescence
# Description: Test Example 1 Evaluation of a Human P2X7 Receptor Inhibitory Activity
# Stably expressing cell line (1321N1 cell transfected with the human P2X7 receptor gene (GenBank accession number NM_002562.5 including T606C and G952A SNP)) was used. The cells were seeded in a 384-well microtiter plate at a concentration of 8000 cells/well and cultured in the medium (10% fetal bovine serum, 25 mM HEPES, 1% penicillin and streptomycin in DMEM) for one day at 37° C. under 5% carbon dioxide atmosphere. After replacing with 20 μL of the HBSS buffer (20 mM HEPES. 55.6 mM D-glucose, 1×HBSS(−), pH 7.4-7.5), 15 μL of 17.3 μM Yo-Pro solution in the HBSS buffer was added. The plate was placed in high-throughput cellular screening system FLIPR TETRA (Molecullar Devices, LLC.) and 15 μL of 130 μM BzATP solution in the HBSS buffer was added. Measurement of fluorescence intensity by FLIPR TETRA was started. After eight minutes, 15 μL of DMSO solutions containing different concentrations of the compound of the present invention as prepared by dilution with the HBSS buffer were dispensed to each well through the built-in automatic dispenser, and the measurement of fluorescence intensity was continued for 20 minutes. The maximum fluorescence intensity without the compound of the present invention is calculated as 0% inhibition and the maximum fluorescence intensity when the reference compound was added is calculated as 100% inhibition. Changing values of fluorescence intensity by the compound of the present invention were calculated by difference between maximum and minimum fluorescence intensity for 20 minutes. Inhibition ratios (%) were calculated from the following equation:
# [formula] IC50 was calculated using logistic approximation.
row,Compound,IC50 [nM]
1,O=c1nc(-c2cccc(C(F)(F)F)c2Cl)n(Cc2ccccc2)cc1OCC(F)(F)F [II-033],60
2,COc1cn(Cc2ccccc2)c(-c2cccc(C(F)(F)F)c2Cl)nc1=O [II-008],41
3,Cc1cn(Cc2ccccc2)c(-c2cccc(C(F)(F)F)c2Cl)nc1=O [II-030],210

# Same assay, conditions: antagonistic activity for the human P2X7 receptor, 1321N1 cell transfected with the human P2X7 receptor gene, Yo-Pro fluorescence, class symbols
row,Compound,IC50 [nM]
1,N#Cc1cn(Cc2ccccc2)c(-c2cccc(C(F)(F)F)c2Cl)nc1=O [II-037],< 50
2,Cc1ccccc1Cn1cc(C#N)c(=O)nc1-c1cccc(C(F)(F)F)c1Cl [II-091],< 50
3,COc1ccc(-c2noc(Cn3ccc(=O)cc3-c3cccc(C(F)(F)F)c3Cl)n2)cc1 [Compound I-038],1000 to 10000
4,COc1cn(Cc2ccccc2C)c(-c2ccccc2Cl)nc1=O [II-074],500 to 1000
5,COc1cccc(Cn2ccc(=O)cc2-c2cccc(C(F)(F)F)c2Cl)n1 [Compound I-032],500 to 1000
6,COc1cn(Cc2ccccc2C)c(-c2ccc(C(F)(F)F)cc2)nc1=O [II-066],1000 to 10000
7,O=c1ccn(Cc2nc3ccccc3s2)c(-c2cccc(C(F)(F)F)c2Cl)c1 [Compound I-042],1000 to 10000
8,COc1cn(Cc2ccc(Cl)cc2)c(-c2cccc(C(F)(F)F)c2Cl)nc1=O [II-096],100 to 500
9,CC(C)Oc1cn(Cc2ccccc2)c(-c2cccc(C(F)(F)F)c2Cl)nc1=O [II-021],50 to 100
10,N#CCOc1cn(Cc2ccccc2)c(-c2cccc(C(F)(F)F)c2Cl)nc1=O [II-022],< 50
11,COc1cn(Cc2ccccc2CO)c(-c2cccc(C(F)(F)F)c2Cl)nc1=O [II-015],< 50
12,CC(=O)c1cn(Cc2ccccc2)c(-c2cccc(C(F)(F)F)c2Cl)cc1=O [Compound I-014],100 to 500
13,COc1cn(Cc2ccccc2C)c(-c2ccccc2F)nc1=O [II-061],1000 to 10000
14,COc1cn(Cc2cccnc2)c(-c2cccc(C(F)(F)F)c2Cl)nc1=O [II-009],100 to 500
15,O=c1cc(-c2cccc(C(F)(F)F)c2Cl)n(Cc2cccc(Cl)c2)cc1Br [Compound I-011],100 to 500
16,O=c1ccn(Cc2ccccc2OCc2ccccc2)c(-c2cccc(C(F)(F)F)c2Cl)c1 [Compound I-049],100 to 500
17,COc1cn(Cc2ccccc2C(F)(F)F)c(-c2cccc(C(F)(F)F)c2Cl)nc1=O [II-099],< 50

row,Compound,IC50 [nM]
1,O=c1ccn(Cc2ccccc2CS(=O)(=O)c2ccccc2)c(-c2cccc(C(F)(F)F)c2Cl)c1 [Compound I-056],1000 to 10000
2,COc1cn(Cc2ccccc2C)c(-c2cccc(Cl)c2)nc1=O [II-059],1000 to 10000
3,O=c1ccn(Cc2ccccc2Cl)c(-c2cccc(C(F)(F)F)c2Cl)c1 [Compound I-059],100 to 500
4,O=c1nc(-c2cccc(C(F)(F)F)c2Cl)n(Cc2ccccc2)cc1OCCO [II-025],50 to 100
5,COc1cn(Cc2ccc(C)cc2)c(-c2cccc(C(F)(F)F)c2Cl)nc1=O [II-016],500 to 1000
6,COc1ccccc1Cn1cc(F)c(=O)nc1-c1cccc(C(F)(F)F)c1Cl [II-093],< 50
7,O=c1ccn(Cc2cccc(Cl)c2)c(-c2cccc(C(F)(F)F)c2Cl)c1 [Compound I-055],100 to 500
8,O=c1ccn(Cc2cccc(F)c2F)c(-c2cccc(C(F)(F)F)c2Cl)c1 [Compound I-062],500 to 1000
9,O=c1ccn(Cc2ccccc2-c2cccs2)c(-c2cccc(C(F)(F)F)c2Cl)c1 [Compound I-045],1000 to 10000
10,O=c1ccn(Cc2cccc3c2OCCCO3)c(-c2cccc(C(F)(F)F)c2Cl)c1 [Compound I-046],100 to 500
11,CC(C)(C)OC(=O)Nc1cn(Cc2ccccc2)c(-c2cccc(C(F)(F)F)c2Cl)nc1=O [II-042],50 to 100
12,COc1cn(Cc2ccccn2)c(-c2cccc(C(F)(F)F)c2Cl)nc1=O [II-018],100 to 500
13,Cc1ccccc1Cn1ccc(=O)cc1-c1cccc(C(F)(F)F)c1Cl [Compound I-018],50 to 100
14,Cc1cc(Cn2ccc(=O)cc2-c2cccc(C(F)(F)F)c2Cl)on1 [Compound I-068],1000 to 10000
15,O=c1nc(-c2cccc(C(F)(F)F)c2Cl)n(Cc2ccccc2)cc1OC(F)F [II-035],100 to 500
16,Cc1ccccc1Cn1cc(Br)c(=O)nc1-c1cccc(C(F)(F)F)c1Cl [II-003],< 50
